{"source": "patent US5629298A", "about": "“Adenosine as a positive inotrop in the compromised heart” (University of Massachusetts Medical Center, priority 1995, dated 1997)", "key": {"rat ventricular myocytes": {"system": "rat ventricular myocytes", "assay": "Contractile function of individual ventricular myocytes (line scan camera edge detection, paced at 0.5 Hz)", "type": "cell-based", "conditions": "for +dL/dtmax, maximal rate of shortening / -dL/dtmax, maximal rate of relaxation / DS, duration of shortening / LC, maximum length change (shortening) with contraction / TPS, time-to-peak shortening / TR, time to 75% relaxation: mean ± SE, N = 6; for inhibition at 0.2 µM / activation at 0.2 µM: Rattus norvegicus, Ventricular myocyte, ISO at 0.2 μM", "procedure": "Primary cultures of adult rat ventricular myocytes were prepared essentially according to previously described methods (Romano et al., Am. J. Physiol. 257:H1088 (1989)). Two male Sprague-Dawley rats (Charles River, Wilmington, Mass. or Harlan, Indianapolis, Ind.) were decapitated, and the hearts were rapidly excised and constant pressure (70 cm H2) and nonrecirculated) perfused for 10 minutes through the aortas with filtered (0.45 μm membrane filter) perfusing solution (NaCl, 118 mM; glucose, 10 mM; NaHCO3 25 mM; KCl, 4.69 mM; MgSO4 1.18 mM; and KH2 PO4, 1.18 mM; (pH 7.4)), to which […] was added, at 37° C. After equilibration, the hearts were constant pressure perfused with fresh physiological saline (\"PS\") containing no added Ca^2+ until spontaneous contractions ceased (i.e., ~30 seconds). The hearts were then perfused for 4-10 minutes in a nonrecirculating manner with PS containing 0.73 mg/ml collagenase, 0.16 mg/ml hyaluronidase, 1 mg/ml recrystallized bovine serum albumin (\"BSA\") and 48.4 μM Ca^2+ at a rate of 3-4 ml/min/heart. Ventricles, free of atria, were removed from the perfusion system, cut into 8 pieces and placed in a 50 ml Erlenmeyer flask with 5 ml of PS containing 0.73 mg/ml collagenase, 0.16 mg/ml hyaluronidase, 2.5 mg/ml BSA, and 50 μM Ca^2+ (incubation solution). The flask was gently shaken (40 cycles/min) in a reciprocating water bath with continuous gassing (95% O2, 5% CO2) for 7 minutes at 37° C. The incubation solution was aspirated and this shaking procedure was repeated with fresh incubation solution 3-5 times depending on the likelihood that the tissue was ready to dissociate. After the final incubation period, the solution was aspirated and replaced with 10 ml of fresh incubation solution. The flask was then shaken rapidly (120 cycles/min) for 10 minutes with gassing to dissociate the myocytes. The flask contents were filtered through a 250 μm nylon mesh into a 50 ml polypropylene centrifuge tube, to which 40 ml of PS containing 5.95 mg/ml BSA and 99.7 μm Ca^2+ (wash solution) was gradually added.\nThe myocytes were allowed to settle for 15 minutes, and the upper two thirds of the wash solution was aspirated. Upon the addition of 30-35 ml of wash solution, this settling step was repeated. The wash solution was aspirated and the myocyte pellet was resuspended in 10 ml of minimum essential medium (\"MEM\"). The myocyte suspension was allowed to settle for 5 minutes and then brought to a final volume of 22 ml with MEM. Two milliliters of the myocyte suspension was seeded onto each of 60 mm culture dishes containing 2 ml of MEM.\nThe contractile function of individual myocytes was assessed by dispersing 50-100 cells in a 506 μl myocyte chamber (11×23×2 mm deep). The chamber (FIG. 1) was continuously suffused (850 μl/min) with fresh suffusion solution (\"SS\") in mM: 136.4 NaCl, 4.7 KCl, 1.0 CaCl2, 10 hydroxyethylpiperzine-ethanesulfonicacid (HEPES), 1.0 NaHCO3, 1.2 MgSO4, 1.2 KH2 PO4, 10 glucose, 0.6 ascorbate, 1.0 pyruvate) at 20° C. The chamber was mounted on an inverted microscope stage and contained platinum wire electrodes for initiating myocyte contraction at 0.5 Hz (voltage 10% above threshold for 5 msec duration).\nThe image of the myocyte was projected via an inverted microscope at 300× onto a line scan camera (Fairchild, Model 1600R) containing a linear array (1×3456) of photodiodes. When aligned with the longitudinal axis of the cell the camera detected the movement of the 2 ends of the myocyte upon contraction (shortening and relengthening). […] When the myocyte was transilluminated, both ends of the cell were easily discriminated. Myocyte length and length change with respect to time for a single contraction was measured by determining the pixels in which the appropriate transitions between light and dark occurred. The line scan camera was calibrated with a stage micrometer scaled in 10 μm divisions. The signals from the camera were directed to a Hewlett Packard computer (Model Vectra RS/20C). […]"}, "[1]": {"system": "myocardial membrane adenylyl cyclase", "assay": "Adenylyl cyclase activity of crude ventricular myocardial membranes", "type": "biochemical, rat", "conditions": "adenosine at 0 to 1 mM, absence or presence of 1 μM DPCPX; myocardium membranes", "procedure": "Crude ventricular myocardial membranes were prepared according to the following procedure. Isolated rat hearts were perfused with 5 ml of ice cold saline (0.9% NaCl) to wash out the blood, minced into 2-3 mm^3 cubes, and placed in 10 ml of homogenization buffer (HB) containing 10 mM HEPES (pH 7.4), 1 mM ethylenediamine-tetraacetic acid (EDTA), 1 mM DTT and 10 μg/ml soybean trypsin inhibitor. The suspension was homogenized with a PT-10 PolytronTM generator at a speed of 6 for two 15-second periods separated by 15 seconds. The homogenized material was also treated with 2 strokes of a glass/teflon motor driven Potter-Elvehjen homogenizer operated at 1/2 full speed. Upon addition of 4.7 ml of HB containing 1.25M sucrose the homogenate was mixed and centrifugated at 1,000 x g for 15 minutes. The supernatant was filtered through 4 layers of cheesecloth and 14.5 ml HB was added. […] Membranes were assayed immediately for adenylyl cyclase activity. […] The formed [α-^32 […] separated from the [α-^32 P]dATP by sequential chromatography using columns of cation exchange resin AG 50W-X4 (200-400 mesh) and neutral alumnia AG 7 (100-200 mesh) after the methods of Salomon (Adv. Cyclic Nucleotide Res. 10:35 (1979). All results were corrected for column recovery of [^3 […] ranged between 60 and 90%. The activity of the adenylyl cyclase is expressed as pmol [α-^32 […] formed/min/mg protein."}, "[2]": {"conditions": "100 μM adenosine administered together with 0.2 μM DPCPX"}, "[3]": {"conditions": "Table 6, 10^-5 M SHA-082, 10^-5 M NECA, 10^-4 M adenosine, 2 × 10^-7 M DPCPX, 10^-5 M CGS-15943"}, "[4]": {"conditions": "ISO at 0.1 μM in the presence of 1 μM PIA"}, "[5]": {"conditions": "Table 2, 0.2 μM ISO, 2 μM PIA, 0.2 μM DPCPX added sequentially every 8-10 min, maximum responses"}}, "note": "Read-outs that look alike come from different tables or passages of the source."}
{"smiles": "Nc1ncnc2c1ncn2[C@@H]1O[C@H](CO)[C@@H](O)[C@H]1O", "note": "[adenosine]", "values": [{"measurement": "increase in +dL/dtmax", "setting": "rat ventricular myocytes; [2]", "result": 29, "unit": "%"}, {"measurement": "increase in DS", "setting": "rat ventricular myocytes; [2]", "result": 20, "unit": "%"}, {"measurement": "increase in LC", "setting": "rat ventricular myocytes; [2]", "result": 35, "unit": "%"}, {"measurement": "increase in TPS", "setting": "rat ventricular myocytes; [2]", "result": 27, "unit": "%"}, {"measurement": "increase in TR", "setting": "rat ventricular myocytes; [2]", "result": 37, "unit": "%"}, {"measurement": "effect on myocyte contractility when administered alone", "setting": "rat ventricular myocytes; 100 μM adenosine or 0.2 μM DPCPX", "result": "without effect"}, {"measurement": "+dL/dtmax, maximal rate of shortening", "setting": "rat ventricular myocytes; [3]", "result": "180 ± 10", "unit": "μm/msec"}, {"measurement": "-dL/dtmax, maximal rate of relaxation", "setting": "rat ventricular myocytes; [3]", "result": "151 ± 10", "unit": "μm/msec"}, {"measurement": "DS, duration of shortening", "setting": "rat ventricular myocytes; [3]", "result": "293 ± 16", "unit": "ms"}, {"measurement": "LC, maximum length change (shortening) with contraction", "setting": "rat ventricular myocytes; [3]", "result": "16 ± 1", "unit": "μm"}, {"measurement": "TPS, time-to-peak shortening", "setting": "rat ventricular myocytes; [3]", "result": "120 ± 4", "unit": "ms"}, {"measurement": "TR, time to 75% relaxation", "setting": "rat ventricular myocytes; [3]", "result": "281 ± 12", "unit": "ms"}, {"measurement": "adenylyl cyclase activity above basal levels", "setting": "[1]", "result": "did not increase"}]}
{"smiles": "CC(C)NCC(O)c1ccc(O)c(O)c1", "note": "(centres unmarked) [ISO, isoproterenol]", "values": [{"measurement": "decrease in TR", "setting": "rat ventricular myocytes; [4]", "result": 10, "unit": "%"}, {"measurement": "increase in +dL/dtmax", "setting": "rat ventricular myocytes; [4]", "result": 70, "unit": "%"}, {"measurement": "increase in -dL/dtmax", "setting": "rat ventricular myocytes; [4]", "result": 93, "unit": "%"}, {"measurement": "increase in LC", "setting": "rat ventricular myocytes; [4]", "result": 44, "unit": "%"}, {"measurement": "inhibition at 0.2 µM", "setting": "rat ventricular myocytes; read-out: decrease in DS", "result": 30, "unit": "%"}, {"measurement": "inhibition at 0.2 µM", "setting": "rat ventricular myocytes; read-out: decrease in TPS", "result": 14, "unit": "%"}, {"measurement": "inhibition at 0.2 µM", "setting": "rat ventricular myocytes; read-out: decrease in TR", "result": 39, "unit": "%"}, {"measurement": "activation at 0.2 µM", "setting": "rat ventricular myocytes; read-out: increase in +dL/dtmax", "result": 63, "unit": "%"}, {"measurement": "activation at 0.2 µM", "setting": "rat ventricular myocytes; read-out: increase in -dL/dtmax", "result": 100, "unit": "%"}, {"measurement": "activation at 0.2 µM", "setting": "rat ventricular myocytes; read-out: increase in LC", "result": 61, "unit": "%"}, {"measurement": "+dL/dtmax, maximal rate of shortening", "setting": "rat ventricular myocytes; [5]", "result": "260 ± 13", "unit": "μm/msec"}, {"measurement": "-dL/dtmax, maximal rate of relaxation", "setting": "rat ventricular myocytes; [5]", "result": "180 ± 17", "unit": "μm/msec"}, {"measurement": "DS, duration of shortening", "setting": "rat ventricular myocytes; [5]", "result": "263 ± 16", "unit": "ms"}, {"measurement": "LC, maximum length change (shortening) with contraction", "setting": "rat ventricular myocytes; [5]", "result": "29 ± 2", "unit": "μm"}, {"measurement": "TPS, time-to-peak shortening", "setting": "rat ventricular myocytes; [5]", "result": "103 ± 4", "unit": "ms"}, {"measurement": "TR, time to 75% relaxation", "setting": "rat ventricular myocytes; [5]", "result": "210 ± 8", "unit": "ms"}]}
